# From US20170283440A1, “CARM1 INHIBITORS AND USES THEREOF” (Epizyme, Inc., priority 2014, published 2017)
# Test system: asymmetric di-methyl PABP1 in RKO cells
# Experiment: RKO methylation assay (In Cell Western for asymmetric di-methyl PABP1)
# Assay type: cell-based
# Settings: 48 hours incubation, read-out: Cellular IC50
# Source text: RKO adherent cells were purchased from ATCC (American Type Culture Collection), Manassas, Va., USA. DMEM/Glutamax medium, penicillin-streptomycin, heat inactivated fetal bovine serum, 0.05% trypsin and D-PBS were purchased from Life Technologies, Grand Island, N.Y., USA. Odyssey blocking buffer, 800CW goat anti-rabbit IgG (H+L) antibody, and Licor Odyssey infrared scanner were purchased from Licor Biosciences, Lincoln, Nebr., USA. Asymmetric di-methyl PABP1 antibody was purchased from Cell Signaling Technology, Danvers, Mass., USA. Methanol was purchased from VWR, Franklin, Mass., USA. 10% Tween 20 was purchased from KPL, Inc., Gaithersburg, Md., USA. Paraformaldehyde (PFA) was purchased from EM Sciences. DRAQ5 was purchased from Biostatus Limited, Leicestershire, UK.
# RKO adherent cells were maintained in growth medium (DMEM/Glutamax medium supplemented with 10% v/v heat inactivated fetal bovine serum and 100 units/mL penicillin-streptomycin) and cultured at 37° C. under 5% CO2.
# Compound (100 nL) from a 96-well source plate was added directly to 384 well cell plate. Plates were incubated at 37° C., 5% CO2 for 48 hours. After two days of incubation, plates were brought to room temperature outside of the incubator for ten minutes and blotted on paper towels to remove cell media. Cells were fixed for 20 minutes at room temperature by adding 50 ul of 8% PFA followed by aspiration of supernatant with the Biotek EL406 plate washer. Cells were then permeabilized by addition of 50 μL of ice cold 100% methanol directly to each well and incubated for 30 min at room temperature. After 30 min, plates were transferred to a Biotek EL406 plate washer and washed 2 times with 100 μL per well of wash buffer (IX PBS). Next 60 μL per well of Odyssey blocking buffer (Odyssey Buffer with 0.1% Tween 20 (v/v)) were added to each plate and incubated 1 hour at room temperature. Blocking buffer was removed and 20 μL per well of primary antibody was added (asymmetric-methyl PABP1) diluted 1:400 in Odyssey buffer with 0.1% Tween 20 (v/v)) and plates were incubated overnight (16 hours) at 4° C. Plates were washed 5 times with 100 μL per well of wash buffer. Next 20 μL per well of secondary antibody was added (1:800 800CW goat anti-rabbit IgG (H+L) antibody, 1:2000 DRAQ5 in Odyssey buffer with 0.1% Tween 20 (v/v)) and incubated for 1 hour at room temperature. The plates were washed 5 times with 100 μL per well wash buffer then 2 times with 100 μL per well of water. Plates were allowed to dry at room temperature then imaged on the Licor Odyssey machine which measures integrated intensity at 700 nm and 800 nm wavelengths. Both 700 and 800 channels were scanned.
# First, the ratio for each well was determined by:
# Each plate included fourteen control wells of DMSO only treatment (minimum inhibition) as well as fourteen control wells for maximum inhibition treated with 20 μM of a reference compound. The average of the ratio values for each control type was calculated and used to determine the percent […] for each test well in the plate. Reference compound was serially diluted three-fold in DMSO for a total of nine test concentrations, beginning at 20 μM.
# Percent inhibition was determined and IC50 curves were generated using triplicate wells per concentration of compound.
row,Compound,IC50 [µM]
1,CC(C)n1ncc2c(N3CCOCC3)cc(-c3cccc(OCC(O)CN)c3)nc21 (stereo not drawn) [Example 11-1],10 to 20

# Same assay, conditions: Homo sapiens, 48 hours incubation, read-out: Cellular IC50
row,Compound,IC50 [µM]
1,CNCC(O)COc1cccc(-c2cc(NC(=O)NC3CCOCC3)c3cnn(C(C)C)c3n2)c1 (stereo not drawn) [Example 2-1],> 20
2,CC(C)n1ncc2c(N3CCOCC3)cc(-c3cccc(OCC(O)CN)c3)nc21 (stereo not drawn) [Example 3-1],10 to 20
3,CNC(=O)Nc1cc(-c2cccc(OCC(O)CN)c2)nc2c1cnn2C(C)C (stereo not drawn) [Example 8-1],> 20
4,CNCC(O)COc1cccc(-c2cc(NCCN)c3cnn(C(C)C)c3n2)c1 (stereo not drawn) [Example 9-1],> 20
5,COC(=O)Nc1cc(-c2cccc(OCC(O)CN)c2)nc2c1cnn2C(C)C (stereo not drawn) [Example 10-1],> 20
6,CC(C)n1ncc2c(N3CCOCC3)cc(-c3cccc(OC[C@@H](O)CN)c3)nc21 [Example 12-1],> 20
7,CC(C)n1ncc2c(NC(=O)N(C)C)cc(-c3cccc(OCC(O)CN)c3)nc21 (stereo not drawn) [Example 14-1],> 20
8,CNCC(O)COc1cccc(-c2cc(N(C)C3CCOC3)n3ncc(C(C)C)c3n2)c1 (stereo not drawn) [Example 14-6],> 20
9,CNCC(O)COc1cccc(-c2cc(NCCCN)c3cnn(C(C)C)c3n2)c1 (stereo not drawn) [Example 15-1],> 20
10,CC(C)n1ncc2c(NC3CC3)cc(-c3cccc(OCC(O)CN)c3)nc21 (stereo not drawn) [Example 15-9],> 20
11,CNCC(O)COc1cccc(-c2cc(NC(=O)OC)c3cnn(C(C)C)c3n2)c1 (stereo not drawn) [Example 16-1],10 to 20
12,COC(=O)CNc1cc(-c2cccc(OCC(O)CN)c2)nc2c1cnn2C(C)C (stereo not drawn) [Example 16-9],> 20
13,CCOC(=O)Nc1cc(-c2cccc(OCC(O)CN)c2)nc2c1cnn2C(C)C (stereo not drawn) [Example 17-1],> 20
14,CNCC(O)COc1cccc(-c2cc(NC3CC3)c3cnn(C(C)C)c3n2)c1 (stereo not drawn) [Example 18-9],> 20
15,CC(C)n1ncc2c(NC3CCOCC3)cc(-c3cccc(OCC(O)CN)c3)nc21 (stereo not drawn) [Example 19-1],> 20
16,CNCC(O)COc1cccc(-c2cc(N3CCOCC3)c3cnn(C(C)C)c3n2)c1 (stereo not drawn) [Example 20-1],> 20

row,Compound,IC50 [µM]
1,CNCC(O)COc1cccc(-c2cc(NC(=O)N(C)C)c3cnn(C(C)C)c3n2)c1 (stereo not drawn) [Example 21-1],> 20
2,CNCC(O)COc1cccc(-c2cc(NCCCCN)c3cnn(C(C)C)c3n2)c1 (stereo not drawn) [Example 22-1],> 20
3,CNCC(O)COc1cccc(-c2cc(NC)c3cnn(C(C)C)c3n2)c1 (stereo not drawn) [Example 22-9],> 20
4,CNCC(O)COc1cccc(-c2cc(NCC(=O)OC)c3cnn(C(C)C)c3n2)c1 (stereo not drawn) [Example 23-1],> 20
5,CNCC(O)COc1cccc(-c2cc(Nc3ccccn3)c3cnn(C(C)C)c3n2)c1 (stereo not drawn) [Example 24-1],> 20
6,CC(C)n1ncc2c(NCc3cccnc3)cc(-c3cccc(OCC(O)CN)c3)nc21 (stereo not drawn) [Example 25-1],> 20
7,CC(C)n1ncc2c(NCc3ccncc3)cc(-c3cccc(OCC(O)CN)c3)nc21 (stereo not drawn) [Example 26-1],> 20
8,CC(C)n1ncc2c(N(C)C3CCOCC3)cc(-c3cccc(OCC(O)CN)c3)nc21 (stereo not drawn) [Example 28-1],10 to 20
9,CNCC(O)COc1cccc(-c2cc(NC3CCOCC3)c3cnn(C(C)C)c3n2)c1 (stereo not drawn) [Example 29-1],10 to 20
10,CC(C)n1ncc2c(NCC3CCOCC3)cc(-c3cccc(OCC(O)CN)c3)nc21 (stereo not drawn) [Example 30-1],> 20
11,CNCC(O)COc1cccc(-c2cc(NCCCCCN)c3cnn(C(C)C)c3n2)c1 (stereo not drawn) [Example 32-1],> 20
12,CNCC(O)COc1cccc(-c2cc(N(C)c3ccccn3)c3cnn(C(C)C)c3n2)c1 (stereo not drawn) [Example 33-1],10 to 20
13,CNCC(O)COc1cccc(-c2cc(NCc3ccccn3)c3cnn(C(C)C)c3n2)c1 (stereo not drawn) [Example 34-1],10 to 20
14,CC(C)n1ncc2c(NCc3cccc(O)c3)cc(-c3cccc(OCC(O)CN)c3)nc21 (stereo not drawn) [Example 35-1],> 20
15,Cc1c(CNc2cc(-c3cccc(OCC(O)CN)c3)nc3c2cnn3C(C)C)cnn1C (stereo not drawn) [Example 37-1],> 20
16,CC(C)n1ncc2c(N[C@H]3CO[C@@H]4OCC[C@@H]43)cc(-c3cccc(OCC(O)CN)c3)nc21 (stereo partly drawn) [Example 38-1],> 20
